Columns and labels:
rat small intestine = assay: Sustained Spike Potential (SSP) myoelectric bioassay, infusion into the duodenum via cannula in instrumented uninfected rats; assay type: in vivo; settings: for SSP/Hr (MEAN ± SE): 0.2 ml infused into duodenum; for SSP frequency compared with saline controls / background (in words): 0.2 ml infused into intestinal lumen, FIG. 3; for stimulation / induction of SSP above background levels (in words): infused into intestinal lumen, concentration not stated at the place
From the text: Outbred male rats (Sprague Dawley, Harlan Sprague Dawley, Inc., Indianapolis, Ind.) were housed singly and maintained on a 12-hour light/12-hour dark cycle. All rats used in the bioassay procedure were uninfected with tapeworms. The design and surgical implantation procedure of the intestinal extracellular bipolar electrodes have been described previously (Dwinell et al., 1994, 1997). Briefly, four bipolar electrodes were surgically sutured to the intestinal serosa of each rat according to the methods of Dwinell et at. (1994), which is incorporated herein by reference. Three electrodes (J1-J3) were implanted on the jejunum at 10 cm intervals, with the first electrode (J1) placed 10 cm caudal from the ligament of Treitz and proceeding caudally with J2 and J3. A fourth electrode (designated “I” because it was placed within the ileum) was placed 20 cm orad from the ileo-caecal junction. In addition, a cannula was implanted with one end residing in the lumen of the mid-duodenum, whereas the other end was exteriorized to allow infusion of test fractions.
All compounds tested were infused into the duodenum via the cannula. Compounds were delivered in 0.2 ml aliquots followed immediately by a 0.2 ml saline cannula rinse. These volumes were used in order to prevent muscle contraction due to stretch from larger bolus volumes. To observe the induction of SSP, intestinal myoelectric activity was recorded for 90 minutes following infusion.
Consistent with the protocol of Dwinell et al. (1994), intestinal myoelectric activity was not recorded for the first five days after implantation surgery. Control recordings were taken after this period to assure the return of normal myoelectric patterns of the MMC following the cessation of post-surgical ileus. Periodic “control” recordings were made with saline on the intervening days between the tests with tapeworm-conditioned medium (TCM) or its fractions.
In vivo intestinal myoelectric activity was recorded with a polygraph chart recorder (Grass Instruments, Quincy, Mass.). The myoelectric signal from each electrode was simultaneously recorded on paper and by a personal computer with an I/O board and WINDAQ software (Dataq Instruments, Akron, Ohio) connected to the polygraph recorder by an analog-to-digital converter (Dataq Instruments).
Food was removed on each recording day at 0800 hour to prevent animal feeding and the subsequent disruption of the interdigestive myoelectric pattern. Recording occurred between 1300 and 1900 hours. All recording sessions for each animal were at least 1.5 hour in duration, and all animals were recorded while awake and unrestrained. Vehicle (0.9% saline or in some cases RPMI 1640) was used as control for test substances.
Five days after electrode and cannula implantation surgery, three consecutive baseline 90-minute recordings were made on separate days in each rat to confirm the presence of normal intestinal myoelectric activity at the end of the immediate post surgical period.
Secreted compounds were infused via the duodenal cannula and the frequency of the sustained spike potential (SSP) electrical patterns was determined from recordings of myoelectric activity. […] The third and final phase of the MMC (marked by arrowheads) is a period of >90% spiking and represents a series of contractions migrating orad to caudad along the small intestine. The caudad migration of phase III between electrode sites propels lumenal content toward the caecum.
Cyclic nucleotides were degraded to their 5′-monophosphate derivatives by incubation with bovine brain phosphodiesterase (PDE; cat. # P-0134, Sigma Co., St. Louis, Mo.).

[1] = tested on: Male Ross x Ross broiler chicks; assay: Effect of cGMP on feed conversion ratio in broiler chicks; assay type: in vivo; settings: Experiment 1
Protocol: cGMP for use in this Example was manufactured by ICN Biomedicals (Irvine, Calif.), and purchased from Fisher Scientific (Hampton, N.H.). Male Ross x Ross broiler chicks were obtained from Sunnyside Hatchery (Beaver Dam, Wis.). Standard commercial chick mash was used as a base ration. cGMP with and without succinate was dissolved in water and sprayed as a mist onto the basal diet during continuous mixing. […] Diets were prepared 1 to 3 days prior to the start of the experiment and stored in individual plastic buckets (1 bucket/replicate). Chicks were randomly placed into treatment groups with 5 birds per replicate. Chicks were weighed as a group, so each pen of 5 animals represents n=1. Treatments and replicates were randomly assigned (via a random number generator) to pens. Chicks were fed ad libitum and checked daily. Feed intake and pen weight were recorded weekly. Feed conversion ratios were calculated as grams of feed consumed/grams of weight gain in the animals. […] The results are shown in Table 2 for two sets of experiments. Experiment 1 was to run for 3 weeks, but was accidentally disrupted during the third week.

[2] = per pen of 5 chicks, 10 mg cGMP/kg of feed and/or 100 mg succinate/kg of feed, terminated after week 2

Nc1nc2c(nc(Br)n2[C@@H]2O[C@@H]3COP(=O)(O)O[C@H]3[C@H]2O)c(=O)[nH]1 [8-Br-cGMP, reference compound]
SSP/Hr (MEAN ± SE) (rat small intestine; 10 mM): 0.50 ± 0.31 SSP/Hr
SSP frequency compared with saline controls / background (in words) (rat small intestine; 10 mM): did not significantly increase

CC(=O)O [Acetate, reference compound]
SSP/Hr (MEAN ± SE) (rat small intestine; 50 mM): 0 SSP/Hr
stimulation / induction of SSP above background levels (in words) (rat small intestine): lack of SSP induction

N[C@@H](C(=O)O)[C@@H](O)[C@H](O)[C@H](O)CO [D-Glucosaminic Acid, D-glucosaminic acid, reference compound]
SSP/Hr (MEAN ± SE) (rat small intestine; 0.25 mM): 0 SSP/Hr
stimulation / induction of SSP above background levels (in words) (rat small intestine): lack of SSP induction

Nc1nc2nc[nH]c2c(=O)[nH]1 [Guanine suspension, guanine, reference compound]
SSP/Hr (MEAN ± SE) (rat small intestine; 10 mM): 0 SSP/Hr

Nc1nc2nc[nH]c2c(=O)[nH]1 [Guanine, guanine, reference compound]
SSP/Hr (MEAN ± SE) (rat small intestine; 0.1 mM): 1.33 SSP/Hr
SSP/Hr (MEAN ± SE) (rat small intestine; 1 mM): 1.33 ± 0.94 SSP/Hr
SSP/Hr (MEAN ± SE) (rat small intestine; 10 mM): 0.33 ± 0.24 SSP/Hr
SSP frequency compared with saline controls / background (in words) (rat small intestine; 10 mM): not significantly different from saline controls

Nc1nc2c(ncn2[C@@H]2O[C@H](COP(=O)(O)O)[C@@H](O)[C@H]2O)c(=O)[nH]1 [Guanosine Monophosphate, reference compound]
SSP/Hr (MEAN ± SE) (rat small intestine; 10 mM): 0.5 ± 0.3 SSP/Hr

Nc1nc2c(ncn2[C@@H]2O[C@H](CO)[C@@H](O)[C@H]2O)c(=O)[nH]1 [Guanosine, guanosine, reference compound]
SSP/Hr (MEAN ± SE) (rat small intestine; 10 mM): 0.50 ± 0.28 SSP/Hr
SSP frequency compared with saline controls / background (in words) (rat small intestine; 10 mM): not significantly different from saline controls

CC(O)C(=O)O (stereo not shown) [Lactic Acid, reference compound]
SSP/Hr (MEAN ± SE) (rat small intestine; 20 mM): 0 SSP/Hr
stimulation / induction of SSP above background levels (in words) (rat small intestine): lack of SSP induction

O=C(O)CCC(=O)O [Succinate, succinic acid]
SSP frequency / SSP induction compared with saline controls (in words) (rat small intestine; 100 mM infused into intestinal lumen): failure
SSP/Hr (MEAN ± SE) (rat small intestine; 100 mM): 0.33 ± 0.27 SSP/Hr
stimulation / induction of SSP above background levels (in words) (rat small intestine): does not alter motility
stimulation / induction of SSP above background levels (in words) (rat small intestine; listed as succinate): lack of SSP induction
Feed Conversion Ration FCR ([1]; grams of feed consumed/grams of weight gain): 1.561 ± 0.073
Feed Intake [1, 2]: 2127 ± 257
Gain [1, 2]: 1372 ± 194

O=c1[nH]cnc2c1ncn2[C@@H]1O[C@@H]2COP(=O)(O)O[C@H]2[C@H]1O [cIMP, reference compound]
stimulation / induction of SSP above background levels (in words) (rat small intestine): no response

O=c1ccn([C@@H]2O[C@@H]3COP(=O)(O)O[C@H]3[C@H]2O)c(=O)[nH]1 [cUMP, reference compound]
stimulation / induction of SSP above background levels (in words) (rat small intestine): no response

— patent US20040192638A1, “Method and composition for prolonging the residence time of drugs in the gut” (priority 2001, published 2004)
